Experimental data from US7622106B1, “Necrosis assay” (Board of Regents, The University of Texas System, priority 2009, dated 2009).

Key:
HT-29 cells = experiment: Smac mimetic plus pan-caspase inhibitor induced necrosis in HT-29 cells; format: cell-based, human; conditions: for cell death of HT-29 cells: Smac mimetic plus z-VAD or Q-VD-OPH co-treatment
Procedure: To verify that cell death seen in HT-29 cells was indeed necrosis, cells treated with either vehicle DMSO, or Smac mimetic plus z-VAD, were analyzed by electron microscopy (EM). […] No obvious apoptotic morphological changes were observed.
Since Smac mimetic induces apoptosis in certain tumor lines as a result of autocrine TNF-α (Petersen et al., 2007; Vince et al., 2007; Varfolomeev et al., 2007), we checked whether autocrine TNF-α is required for the observed necrosis in HT-29 cells. […] Moreover, exogenously added TNF-α augmented Smac mimetic plus z-VAD induced cell death and it did so in a dose dependent manner.

certain tumor cell lines = conditions: cited from earlier work
cIAP2 = target: T1, cIAP2 (Homo sapiens, UniProt Q13489); experiment: cIAP2 degradation upon Smac mimetic treatment in HT-29 cells; format: cell-based
T1 construct: endogenous in cells; host or cells: HT-29
T1 sequence (Q13489 whole entry): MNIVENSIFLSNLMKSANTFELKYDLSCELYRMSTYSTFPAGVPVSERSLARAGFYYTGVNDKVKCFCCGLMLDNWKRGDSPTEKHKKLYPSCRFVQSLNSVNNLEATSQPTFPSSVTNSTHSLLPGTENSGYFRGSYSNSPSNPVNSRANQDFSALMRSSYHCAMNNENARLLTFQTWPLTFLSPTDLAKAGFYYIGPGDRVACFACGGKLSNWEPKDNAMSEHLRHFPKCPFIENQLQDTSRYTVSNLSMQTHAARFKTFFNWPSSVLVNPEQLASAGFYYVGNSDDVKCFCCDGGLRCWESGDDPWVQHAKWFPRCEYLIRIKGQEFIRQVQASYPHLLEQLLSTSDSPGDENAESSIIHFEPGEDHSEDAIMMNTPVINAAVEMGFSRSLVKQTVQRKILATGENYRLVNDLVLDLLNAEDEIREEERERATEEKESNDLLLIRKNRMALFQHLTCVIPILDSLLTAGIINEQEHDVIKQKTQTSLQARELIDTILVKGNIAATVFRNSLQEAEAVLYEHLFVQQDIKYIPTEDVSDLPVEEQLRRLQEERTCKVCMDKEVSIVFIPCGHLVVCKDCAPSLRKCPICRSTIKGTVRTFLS

L929 cells = experiment: Necrotic cell death in L929 cells; format: cell-based, mouse
From the text: TNF-α induced necrosis has been most extensively studied in mouse fibrosarcoma L929 cells due to its unique ability to undergo necrosis in response to TNF-α, or z-VAD alone (Grooten et al., 1993; Vercammen et al., 1998; Degterev et al., 2005; Kim et al., 2007). To test whether RIP3 is required for necrosis this L929 cells, we knocked down RIP3 with three individual mouse siRNA oligoes. Cell death induced by z-VAD, or TNF-α alone or combination of the two was attenuated when RIP3 was knocked down in L929 cells. The efficacy of necrosis blockage of these oligoes correlated perfectly with the efficiency of RIP3 knockdown.

T98G cells = experiment: Necrosis induction in T98G cells ectopically expressing RIP3; format: cell-based, human; conditions: T98G cells expressing wild type RIP3, necrosis induction
From the text: Since cells resistant to TNF-α induced necrotic death are also defective in RIP3 expression, we then tested whether ectopic expression of RIP3 converts these cells to sensitive ones. When wild type RIP3 was expressed in T98G cells, we saw marked cell death in these cells upon necrosis induction compared to vector transfection controls. […] Moreover, T98G cell death resulted from RIP3 expression was blocked by the necrosis inhibitor, Necrostatin-1. Similar effects were observed when RIP3 was expressed in HeLa cells, MCF-7 cells, and H2009 cells.

RIP3/RIPK1 = RIP3/RIPK1 (Homo sapiens, UniProt Q13546); experiment: RIP3 up-shift and RIPK1 co-immunoprecipitation in HT-29 cells under necrosis induction; format: cell-based; conditions: co-treatment during necrosis induction (TNF-α, Smac mimetic, z-VAD)
RIP3/RIPK1, sequence (Q13546 whole entry): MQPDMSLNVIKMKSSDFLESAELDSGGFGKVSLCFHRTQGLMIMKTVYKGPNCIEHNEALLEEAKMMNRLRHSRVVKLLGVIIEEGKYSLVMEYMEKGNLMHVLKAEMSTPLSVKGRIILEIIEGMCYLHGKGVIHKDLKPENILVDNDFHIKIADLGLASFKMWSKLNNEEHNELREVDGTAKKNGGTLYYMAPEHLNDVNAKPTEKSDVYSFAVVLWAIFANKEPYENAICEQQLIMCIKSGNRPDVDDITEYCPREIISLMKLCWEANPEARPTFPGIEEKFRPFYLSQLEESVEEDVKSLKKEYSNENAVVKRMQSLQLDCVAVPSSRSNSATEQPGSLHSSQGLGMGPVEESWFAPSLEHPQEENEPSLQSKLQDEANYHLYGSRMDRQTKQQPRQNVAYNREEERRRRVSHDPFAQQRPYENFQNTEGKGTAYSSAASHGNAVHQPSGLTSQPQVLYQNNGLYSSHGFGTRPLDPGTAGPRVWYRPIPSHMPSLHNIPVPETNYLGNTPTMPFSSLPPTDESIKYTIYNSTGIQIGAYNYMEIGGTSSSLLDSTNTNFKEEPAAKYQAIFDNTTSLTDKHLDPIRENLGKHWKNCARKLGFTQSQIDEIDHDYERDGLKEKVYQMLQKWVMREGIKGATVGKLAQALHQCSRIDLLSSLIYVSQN
Procedure: To test whether endogenous RIP3 indeed interacts with RIPK1 upon necrosis induction, we treated HT-29 cells with TNF-α, Smac mimetic and z-VAD, followed by immuno-precipitation using an anti-RIPK1 antibody at different time points. […] Correlating with the shift, RIP3 was found in the RIPK1 immuno-complex starting at 4 hours of necrosis induction and peaked at 8 hours. The up-shift of RIP3 and its interaction with RIPK1 only occurred under necrosis-inducing conditions. The observed up-shift of RIP3 is most likely due to phosphorylation that depends on its own kinase activity. […] Moreover, the RIP3 band can be shifted down to the original position on SDS-PAGE gel with phosphatase treatment.
To further confirm the relevance of RIP3 up-shift and its induced interaction with RIPK1 to necrosis, HT-29 cells were co-treated with Necrostatin-1 during necrosis induction.

[1] = target: RIPK1/FADD/caspase-8 complex (Homo sapiens, UniProt Q13546); experiment: Caspase-8 immunoprecipitation of RIPK1/FADD/caspase-8/RIP3 complex in HT-29 cells; format: cell-based; conditions: co-treatment, anti-caspase-8 immunoprecipitation
RIPK1/FADD/caspase-8 complex, sequence (Q13546 whole entry, one chain of several): as the sequence (Q13546 whole entry) above
Procedure: Since RIPK1 forms a complex with caspase-8/FADD upon treatment with TNF-α plus Smac mimetic and the complex is stabilized with z-VAD (Petersen et al., 2007; Wang et al., 2008), we wondered whether it is the same complex that recruits RIP3. To check that directly, we immuno-precipitated caspase-8 and analyzed the composition of the immuno-complex by Western blotting. […] RIP3 continued to be recruited to the complex for up to 6 hours of treatment. Much less proteins were immuno-precipitated at 8 hours with this anti-caspase-8 antibody. This observation might reflect that a large percentage of cells were dying. […] This is consistent with the notion that Necrostatin-1 inhibits RIPK1 kinase activity, which is required for the formation of RIPK1/FADD/caspase-8 complex (Degterev et al., 2008; Wang et al., 2008).

z-VAD
cell death of HT-29 cells (HT-29 cells): exacerbated cell death
effect on Smac mimetic induced apoptotic death (certain tumor cell lines): completely blocked

CN[C@@H](C)C(=O)N[C@H](C(=O)N1CCC[C@H]1Cn1nnnc1Sc1ccccc1)C(C)OCC#CC#CCO[C@H](C)[C@H](NC(=O)[C@H](C)NC)C(=O)N1CCCC1Cn1nnnc1Sc1ccccc1 (stereo partly drawn) [Smac mimetic]
cell death of HT-29 cells (HT-29 cells): exacerbated cell death
cIAP2 degradation (cIAP2): accelerated degradation
cell death in L929 cells (L929 cells): accelerated cell death

TNF-α
effect of exogenously added TNF-α on Smac mimetic plus z-VAD induced cell death (HT-29 cells; HT-29 cells): augmented

CN1C(=O)C(Cc2c[nH]c3ccccc23)NC1=S (stereo not drawn) [Necrostatin-1]
effect on Smac mimetic plus z-VAD induced cell death (HT-29 cells; HT-29 cells, agent added to culture): cell death was prevented
effect on T98G cell death resulting from RIP3 expression (T98G cells): blocked
RIP3 interaction with RIPK1 (RIP3/RIPK1): completely prevented
RIP3 up-shift (RIP3/RIPK1): completely prevented
formation of RIPK1/FADD/caspase-8 (RIP3) complexes [1]: none of these complexes were able to form efficiently

Q-VD-OPH
cell death of HT-29 cells (HT-29 cells): exacerbated cell death
